The data set can be described thus: in vitro. The note with it: for differences in half-life and intrinsic clearance compared to 2-Br-LSD: human liver microsomes, significant = 15% or more increase in half-life, CLint ratio >1.15 or <0.85; for CLint / T1/2: pooled liver microsomes 0.5 mg/mL protein, test compound 1 μM, NADPH 1 mM, 37° C., 0-45 min, LC-MS/MS; for half-life / microsomal CLint: pH 7.4. How it is done: Test compound (1 μM) was incubated with pooled liver microsomes.
Pooled liver microsomes were purchased from a reputable commercial supplier. Microsomes were stored at −80° C. prior to use.
A minus cofactor control incubation was included for each compound tested where 0.1 M phosphate buffer pH 7.4 was added instead of NADPH (minus NADPH). Two control compounds were included with each species. All incubations were performed singularly for each test compound.
The reactions were stopped by transferring incubate into acetonitrile at the appropriate time points, in a 1:3 ratio. The termination plates were centrifuged at 3,000 rpm for 20 min at 4° C. to precipitate the protein.
Following protein precipitation, the sample supernatants were combined in cassettes of up to 4 compounds, internal standard was added and samples analyzed using generic LCMS/MS conditions.
From a plot of ln peak area ratio (compound peak area/internal standard peak area) against time, the gradient of the line was determined. Subsequently, half-life and intrinsic clearance were calculated using the equations below: […]
Relevant control compounds were assessed, ensuring intrinsic clearance values fell within the specified limits (if available). Any failures were rejected and the assay repeated. The intrinsic clearance (CLint) of the test compound and t ½ were returned.

Each structure is given as a SMILES string. Where a name gives a salt, the structure may show the parent alone.

With `[2H]c1c([2H])c2c3c(c(Br)[nH]c3c1[2H])C[C@@H]1C2=C[C@@H](C(=O)N(CC)CC)CN1C` [Compound 1, (6aR,9R)-5-Bromo-N,N-diethyl-7-methyl-4,6,6a,7,8,9-hexahydroindolo[4,3-fg]quinoline-9-carboxamide-1,2,3-d3 formate], the “differences in half-life and intrinsic clearance compared to 2-Br-LSD” value is “differences”; the CLint is reported as 52.6 μL/min/mg protein; the T1/2 amounted to 0.438 h.

As for `[2H]C([2H])([2H])N1C[C@H](C(=O)N(CC)CC)C=C2c3cccc4[nH]c(Br)c(c34)C[C@H]21` [Compound 2, (6aR,9R)-5-bromo-N,N-diethyl-7-(methyl-d3)-4,6,6a,7,8,9-hexahydroindolo[4,3-fg]quinoline-9-carboxamide], the “differences in half-life and intrinsic clearance compared to 2-Br-LSD” value is on record as “differences”; the CLint worked out at 49.4 μL/min/mg protein; the T1/2 was 0.468 h.

In the case of `CCN(CC)C(=O)[C@@H]1C=C2c3cccc4[nH]c(Br)c(c34)C[C@H]2N(C)C1` [Compound 2-Br-LSD, 2-Bromolysergic acid diethylamide, reference compound], the CLint worked out at 56.3 μL/min/mg protein and the T1/2 was 0.41 h.

In the case of `[2H]C([2H])([2H])C([2H])([2H])N(C(=O)[C@@H]1C=C2c3cccc4[nH]c(Br)c(c34)C[C@H]2N(C)C1)C([2H])([2H])C([2H])([2H])[2H]` [Compound 7, (6aR,9R)-5-bromo-N,N-bis(ethyl-d5)-7-methyl-4,6,6a,7,8,9-hexahydroindolo[4,3-fg]quinoline-9-carboxamide], the CLint worked out at 44.6 μL/min/mg protein and the T1/2 came out at 0.518 h.

Turning to `[2H]C([2H])([2H])N1C[C@H](C(=O)N(C([2H])([2H])C([2H])([2H])[2H])C([2H])([2H])C([2H])([2H])[2H])C=C2c3cccc4[nH]c(Br)c(c34)C[C@H]21` [Compound 9, (6aR,9R)-5-bromo-N,N-bis(ethyl-d5)-7-(methyl-d3)-4,6,6a,7,8,9-hexahydroindolo[4,3-fg]quinoline-9-carboxamide trifluoroacetate-d], the CLint turned out to be 38.8 μL/min/mg protein and the T1/2 came out at 0.595 h.

Take `[2H]c1[nH]c2cccc3c2c1C[C@@H]1C3=C[C@@H](C(=O)N(CC)CC)CN1C` [Compound 41, (6aR,9R)-N,N-diethyl-7-methyl-4,6,6a,7,8,9-hexahydroindolo[4,3-fg]quinoline-9-carboxamide-4,5-d trifluoroacetate-d]: the CLint is 17.8 μL/min/mg protein and the T1/2 was 1.3 h.

For the molecule `[2H]c1[nH]c2c([2H])c([2H])c([2H])c3c2c1C[C@@H]1C3=C[C@@H](C(=O)N(CC)CC)CN1C` [Compound 45, (6aR,9R)-N,N-diethyl-7-methyl-4,6,6a,7,8,9-hexahydroindolo[4,3-fg]quinoline-9-carboxamide-1,2,3,5-d4 triflate-d], the CLint was determined as 16.7 μL/min/mg protein and the T1/2 turned out to be 1.38 h.

Regarding `[2H]C([2H])([2H])C([2H])([2H])N(C(=O)[C@@H]1C=C2c3cccc4[nH]cc(c34)C[C@H]2N(C)C1)C([2H])([2H])C([2H])([2H])[2H]` [Compound 47, (6aR,9R)-N,N-Bis(ethyl-d5)-7-methyl-4,6,6a,7,8,9-hexahydroindolo[4,3-fg]quinoline-9-carboxamide], the CLint is recorded as 17.2 μL/min/mg protein and the T1/2 was 1.35 h.

Where the note is “human, microsomes”, `[2H]C([2H])([2H])N1C[C@H](C(=O)N(C([2H])([2H])C([2H])([2H])[2H])C([2H])([2H])C([2H])([2H])[2H])C=C2c3cccc4[nH]cc(c34)C[C@H]21` [Compound 50, (6aR,9R)-N,N-bis(ethyl-d5)-7-(methyl-d3)-4,6,6a,7,8,9-hexahydroindolo[4,3-fg]quinoline-9-carboxamide trifluoroacetate-d] returned a half-life of 1.61 h and a microsomal CLint of 14.3 µL/min/mg.

Turning to `[2H]c1[nH]c2cccc3c2c1C[C@@H]1C3=C[C@@H](C(=O)N(C([2H])([2H])C([2H])([2H])[2H])C([2H])([2H])C([2H])([2H])[2H])CN1C` [Compound 55, (6aR,9R)-N,N-Bis(ethyl-d5)-7-methyl-4,6,6a,7,8,9-hexahydroindolo[4,3-fg]quinoline-9-carboxamide-5-d trifluoroacetate-d], under “human, microsomes”, the half-life amounted to 1.39 h and the microsomal CLint turned out to be 16.6 µL/min/mg.

Take `[2H]c1[nH]c2c([2H])c([2H])c([2H])c3c2c1C[C@@H]1C3=C[C@@H](C(=O)N(C([2H])([2H])C([2H])([2H])[2H])C([2H])([2H])C([2H])([2H])[2H])CN1C` [Compound 67, (6aR,9R)-N,N-Bis(ethyl-d5)-7-methyl-4,6,6a,7,8,9-hexahydroindolo[4,3-fg]quinoline-9-carboxamide-1,2,3,5-d4 triflate-d]: for the setting “human, microsomes”, the “differences in half-life and intrinsic clearance compared to LSD” value was “significant differences”; the half-life was 2 h; the intrinsic metabolic clearance (microsomal CLint) was 11.5 µL/min/mg.

Take `CCN(CC)C(=O)[C@@H]1C=C2c3cccc4[nH]cc(c34)C[C@H]2N(C)C1` [LSD, Lysergic acid diethylamide, reference compound]: under “human, microsomes”, the half-life amounted to 1.42 h and the microsomal CLint amounted to 16.3 µL/min/mg.

The molecule `COc1ccc2c(c1)[C@]13CCCC[C@@H]1[C@H](C2)N(C)CC3` [dextromethorphan, reference compound] gave an intrinsic clearance (microsomal CLint) (human, microsomes) of 46.8 µL/min/mg.

Broadly, the half-life is the time needed for the level to fall by half in the phase considered. The low end stands for fast loss, the high end for slow loss. As usually defined, the microsomal CLint is a measure of how fast metabolising enzymes remove a compound, apart from limits set by blood flow.
